Reference: US20050075371A1, “Methods and compositions for the oral administration of prodrugs of proton pump inhibitors” (ALLERGAN, INC., priority 2003, published 2005)
In brackets after ≈: the same amount, converted by molar mass. Where two headings read alike, the source gives them in different places.

Assays:
Caco-2 cells = experiment: Membrane permeability (Papp) across Caco-2 cell monolayer, apical to basolateral; assay type: in vitro ADME; conditions: Caco-2, apical to basolateral, 10 μM, 37° C.
Protocol: (§1) Determination of membrane permeability in all examples described herein was accomplished by the following procedure. This procedure is also used to determine whether a given prodrug falls within the scope of those claims given herein which relate to membrane permeability.
(§2) Caco-2 cells were seeded on Costar™ 12 mm diameter, 0.4 μm pore size transwell filters, and were cultured at 37° C., 5% CO2 in a humidified tissue culture chamber.
(§3) DMEM was equilibrated as a transport buffer in 37° C. water bath an hour before experiment. The cells were then equilibrated in transport buffer for 1 hr at 37° C.
(§4) Dosing solution (10 μM) was prepared by adding a 20 μL aliquot of a 10 mM stock solution of the prodrug to 20 mL of transport buffer.
(§5) Transport across Caco-2 cell monolayer was measured at 37° C., in the apical to basolateral direction (n=3).
(§6) Transport buffer was removed from both apical and basolateral compartment of filters. Dosing solution (0.2 mL) was added to the apical compartment of the cell layers on transwell filters, and 0.8 ml fresh pre-warmed transport buffer was added to basolateral compartment. Timing was started for transport, and at 5, 20, and 60 min after transport started, sample fluid (400 μL) was collected from the basolateral compartment. Fresh transport buffer (400 μL) was added back to the basolateral compartment, and the fluid was thoroughly mixed.
(§7) Transport samples, dosing solution, and standards(100 μL) each were mixed with 100 μl of a 500 ng/ml internal standard (Lansoprazole-D) for LC-MS/MS analysis, and part of each sample (100 μL) was vortexed and transferred into glass LC-MS/MS vials for analysis.
(§8) The apparent permeability coefficient (Papp, cm/sec), otherwise known herein as the membrane permeability, is determined from the following relationship: Papp=J/(ACo) where J (pmol/min) is the transport rate, meaning the rate of prodrug movement through the cell layer, A (cm^2) is the filter surface area, and Co (μM) is the initial dosing concentration.
(§9) The transport rate J, is calculated as the slope of the linear regression fit for the transport amount over time data using Microsoft Excel® 97 SR-2 (Microsoft Corp. Redmond, Wash.).
(§10) Lucifer yellow (LY) was used as a paracellular permeability reference standard to determine integrity of cell layers used in the experiments. LY transport in the apical to basolateral direction was carried out in the same manner as described above. Fluorescence level in basolateral fluid sampled at 5, 20, and 60 min post dose was determined using Fluostar Galaxy (BMG Labtechnologies, Durham, N.C.) at excitation/emission wavelengths of 485/520 nm. A standard curve covering the range from 0.002 to 0.5 mg/mL is constructed to quantify the amount of LY in the transport sample to calculate permeability coefficient (Papp).

[1] = Systemic half-life after oral or intravenous administration in rats; assay type: in vivo, rats (Sprague-Dawley); conditions: for Rat T1/2 PPI / half-life / Systemic omeprazole half-life: rats; for half-life: Sprague-Dawley, rat, blood
Protocol: (§11) Blood concentrations of the compounds omeprazole, lansoprazole, pantoprazole, rabeprazole, and test compounds were quantified using an achiral liquid chromatography tandem mass spectrometry method (LC-MS/MS). Systemic pharmacokinetic parameters were determined for omeprazole or lansoprazole using non-compartmental analysis in Watson® version 6.3, available from InnaPhase Corporation, Philadelphia, Pa.

[2] = Systemic half-life after oral or intravenous administration in dogs; assay type: in vivo, dogs (beagle); conditions: for half-life: beagle, dog, blood
Protocol: as §11

[3] = Membrane permeability (Papp) across Caco-2 cell monolayer, apical to basolateral; assay type: in vitro ADME; conditions: human, Caco-2, apical to basolateral, 37° C.
Protocol: as §1, §2, §3, §4, §5, §6, §7, §8, §9, §10

[4] = somewhat buffer dependent, Kromer et al., Ekpe et al., cited from earlier work
[5] = Hygroscopicity on storage; assay type: physicochemical; conditions: 14 days of storage at 25° C. at 75% relative humidity
Protocol: The physicochemical properties of compound 1 were analyzed.

[6] = Solubility profile in buffered aqueous solutions; assay type: physicochemical; conditions: 25° C.
Excerpt: While not intending to be bound in any way by theory, it is believed that this improvement in solubility is due to the deprotonation of a sufficient quantity of the acid.

[7] = Stability profile in buffered aqueous solutions; assay type: physicochemical; conditions: 25° C.
[8] = Degradation in simulated gastric fluid; assay type: physicochemical; conditions: simulated gastric fluid (USP, pepsin); pH 1.2
Protocol: Simulated gastric fluid was prepared as specified by USP (http://www.uspnf.com/uspnf/usp26nf21/default.htm, Reagents>Solutions>Test Solutions>Gastric Fluid, Simulated). To make 200 mL of simulated gastric fluid, 0.4 g of sodium chloride and 0.64 g of purified pepsin, with an activity of 800 to 2500 units per mg of protein, was dissolved in 1.4 mL of hydrochloric acid and sufficient water. The solution was adjusted to the appropriate pH with hydrochloric acid.
The pH dependence of the half-life of compound 1 in the simulated gastric fluid is depicted in Table 4A.

[9] = Systemic omeprazole after enteric-coated or regular capsules in dogs; assay type: in vivo; conditions: Dog, oral capsule of sodium salt of compound 1
Protocol: (§12) The bioavailability of compound 1 in enterically coated and non enterically coated dosage forms was investigated for dogs and monkeys. Regular and enteric-coated size 3 HPMC capsules (Capsugel, Morris Plains, N.J.) containing compound 1 were prepared by placing the appropriate amount of the sodium salt of compound 1 in the capsule. The enteric-coating material was prepared by dissolving cellulose acetate phthalate in a mixture of isopropyl alcohol and dichloromethane. The entire capsule was dipped in the enteric-coating material, and the isopropyl alcohol and dichloromethane were allowed to evaporate. The dosage forms were administered to the animals and the concentration of the omeprazole in the blood was determined as described in the oral bioavailability determination of Example 2. The maximum concentration of omeprazole (Cmax) and the total area under the curve (AUC) for the animals receiving both enterically coated and non-enterically coated oral dosage forms is presented in Table 4B. In both dogs and monkeys, both the Cmax and the AUC are higher for the non-enterically coated dosage form.

[10] = Systemic omeprazole after enteric-coated or regular capsules in monkeys; assay type: in vivo; conditions: Monkey, oral capsule of sodium salt of compound 1
Protocol: as §12

[11] = Oral administration of solid dosage form to a person suffering from heartburn; assay type: in vivo; conditions: 40 mg compound 1, 50% as sodium salt, oral daily
Protocol: A solid dosage form comprising 40 mg of compound 1, having 50% of the prodrug in the form of the sodium salt, is orally administered daily to a person suffering from heartburn. Relief of pain begins to occur within about 1 day, and continues as long as the person takes the dosage form.

[12] = oral solution, systemic half-life of the proton pump inhibitor, unit inferred
[13] = oral solution, systemic half-life of the proton pump inhibitor, unit inferred, read-out: Rat T1/2 PPI (converted)
[14] = po, Table 2D, read-out: t1/2 (systemic half-life in dogs after oral administration) (converted)
[15] = po, oral solution, systemic half-life of the proton pump inhibitor, unit inferred, read-out: Dog T1/2 PPI (converted)
[16] = intravenous, equivalent omeprazole dose 1 mg/kg
[17] = oral, equivalent omeprazole dose 10 mg/kg
[18] = pH 3, Citric Acid (0.1 M)/Na2HPO4 (0.2 M)
[19] = pH 5, Citric Acid (0.1 M)/Na2HPO4 (0.2 M)
[20] = pH 7, sodium phosphate (0.1-0.2 M)
[21] = pH 9, sodium phosphate (0.1-0.2 M)
[22] = pH 7.4, sodium phosphate (0.1-0.2 M)
[23] = pH 10, sodium phosphate (0.1-0.2 M)

Cc1c(OCC(F)(F)F)ccnc1C[S+]([O-])c1nc2ccccc2n1S(=O)(=O)c1ccc(CC(=O)O)cc1 (stereo not drawn) [Compound 9]
Permeability (Caco-2 cells): 0.34 ×10⁻⁶ cm/s
Rat T1/2 PPI [1, 12]: 20.5 min
Dog T1/2 PPI [2, 12]: 53.6 min
t1/2 (systemic half-life in dogs after oral administration) ([2]; oral, Table 2D): 53.4 min

COc1ccc2[nH]c([S+]([O-])Cc3ncc(C)c(OC)c3C)nc2c1 (stereo not drawn) [Omeprazole, reference compound]
Papp A→B at 60 min, 10 μM [3]: 13 ×10⁻⁶ cm/s
half-life ([1]; intravenous, equivalent omeprazole dose 1 mg/kg, read-out: Systemic omeprazole half-life (converted)): 9 min
half-life [1, 13]: 18.5 min
half-life ([1]; oral, equivalent omeprazole dose 10 mg/kg, read-out: Systemic omeprazole half-life (converted)): 18.6 min
half-life ([2]; iv, 1 mg/kg, intravenous, equivalent omeprazole dose 1 mg/kg, read-out: Systemic omeprazole half-life (converted)): 36 min
half-life ([2]; po, 10 mg/kg, oral, equivalent omeprazole dose 10 mg/kg, read-out: Systemic omeprazole half-life (converted)): 42 min
half-life [2, 14]: 42 min
half-life [2, 15]: 41.8 min
typical half-life (aqueous stability) ([4]; pH 5): about 1 hour
typical half-life (aqueous stability) ([4]; pH 7): about 40 hours

COc1ccc2c(c1)nc([S+]([O-])Cc1ncc(C)c(OC)c1C)n2S(=O)(=O)c1ccc(OCC(=O)O)cc1 (stereo not drawn) [Compound 1]
Permeability (Caco-2 cells): 0.12 ×10⁻⁶ cm/s
Prodrug in the bloodstream 5 minutes after intravenous administration ([1]; rats (Table 2A study), intravenous, 5 minutes): not detected
Systemic omeprazole half-life [1, 16]: 10.8 min
Systemic omeprazole half-life [1, 17]: 102 min
Systemic omeprazole half-life [2, 16]: 60 min
Dog T1/2 PPI [2, 12]: 125 min
t1/2 (systemic half-life in dogs after oral administration) ([2]; oral, Table 2D): 144 min
Systemic omeprazole half-life [2, 17]: 144 min
weight gain [5]: 9%
Solubility ([6]; pH 1, 0.1 M HCl): 1.8 mg/mL (≈ 3.22 mM)
Solubility [6, 18]: 0.4 mg/mL (≈ 0.715 mM)
Solubility [6, 19]: >50 mg/mL
Solubility [6, 20]: >50 mg/mL
Solubility [6, 21]: >50 mg/mL
Degradation Rate Constant (k) ([7]; pH 1, 0.1 M HCl): 0.194 h⁻¹
Half-life (t1/2) ([7]; pH 1, 0.1 M HCl): 3.6 h
Shelf life (t90%) ([7]; pH 1, 0.1 M HCl): 0.5 h
Degradation Rate Constant (k) [7, 18]: 0.009 h⁻¹
Half-life (t1/2) [7, 18]: 78.0 h
Shelf life (t90%) [7, 18]: 11.9 h
Degradation Rate Constant (k) [7, 19]: 0.008 h⁻¹
Half-life (t1/2) [7, 19]: 89.2 h
Shelf life (t90%) [7, 19]: 13.6 h
Degradation Rate Constant (k) [7, 20]: 0.002 h⁻¹
Half-life (t1/2) [7, 20]: 286.8 h
Shelf life (t90%) [7, 20]: 43.6 h
Degradation Rate Constant (k) [7, 22]: 0.002 h⁻¹
Half-life (t1/2) [7, 22]: 291.2 h
Shelf life (t90%) [7, 22]: 44.3 h
Degradation Rate Constant (k) [7, 21]: 0.030 h⁻¹
Half-life (t1/2) [7, 21]: 23.0 h
Shelf life (t90%) [7, 21]: 3.5 h
Degradation Rate Constant (k) [7, 23]: 0.298 h⁻¹
Half-life (t1/2) [7, 23]: 2.3 h
Shelf life (t90%) [7, 23]: 0.4 h
Half-life in Simulated Gastric Fluid [8]: 180 min
AUC Omeprazole/Dose ([9]; Enteric Coating): 82.2 ± 18.4 ng·h/mL/mg/kg
Cmax Omeprazole/Dose ([9]; Enteric Coating): 22.5 ± 7.3 ng/mL/mg/kg
AUC Omeprazole/Dose ([9]; Regular Capsule): 91.3 ± 32.9 ng·h/mL/mg/kg
Cmax Omeprazole/Dose ([9]; Regular Capsule): 29.2 ± 11.8 ng/mL/mg/kg
AUC Omeprazole/Dose ([10]; Enteric Coating): 18.9 ± 7.9 ng·h/mL/mg/kg
Cmax Omeprazole/Dose ([10]; Enteric Coating): 6.09 ± 1.04 ng/mL/mg/kg
AUC Omeprazole/Dose ([10]; Regular Capsule): 19.7 ± 8.8 ng·h/mL/mg/kg
Cmax Omeprazole/Dose ([10]; Regular Capsule): 14.0 ± 17.1 ng/mL/mg/kg
Relief of pain begins to occur [11]: ≤ 1 days

COc1ccc(S(=O)(=O)n2c([S+]([O-])Cc3nccc(OCC(F)(F)F)c3C)nc3ccccc32)cc1C(=O)O (stereo not drawn) [Compound 8]
Permeability (Caco-2 cells): 0.23 ×10⁻⁶ cm/s
Rat T1/2 PPI [1, 12]: 108 min
Dog T1/2 PPI [2, 12]: 64.8 min
t1/2 (systemic half-life in dogs after oral administration) ([2]; oral, Table 2D): 66 min

COc1ccc2c(c1)nc([S+]([O-])Cc1ncc(C)c(OC)c1C)n2S(=O)(=O)c1ccc(OCC(C)(C)C(=O)O)cc1 (stereo not drawn) [Compound 3]
Permeability (Caco-2 cells): 0.38 ×10⁻⁶ cm/s
Rat T1/2 PPI [1, 12]: 106 min
Dog T1/2 Prodrug ([2]; oral solution, half-life of intact prodrug, NC = plasma concentration of prodrug too low to calculate half-life, or undetected, unit inferred): 18.7 min
Dog T1/2 PPI [2, 12]: 48.8 min
t1/2 (systemic half-life in dogs after oral administration) ([2]; oral, Table 2D): 48.6 min

Cc1c(OCC(F)(F)F)ccnc1C[S+]([O-])c1nc2ccccc2[nH]1 (stereo not drawn) [Lansoprazole, reference compound]
Papp A→B at 60 min, 10 μM [3]: 15 ×10⁻⁶ cm/s
half-life [1, 13]: 30.6 min
half-life [2, 14]: 34.2 min
half-life [2, 15]: 34.4 min
